Data from patent publication US20250243196A1, “CITRON KINASE INHIBITORS” (The Cleveland Clinic Foundation, priority 2021, published 2025).

Columns and labels:
Test in all cases: KinaseProfiler panel
Assay type in all cases: biochemical
Conditions in all cases: activity remaining
[1] = biological target: CDKL2(h) (Homo sapiens (Human), UniProt Q92772); parameters: dose or concentration left out as unconfirmed
[2] = biological target: PI3 Kinase (p110a/p85a)(h) (Homo sapiens (Human), UniProt P42336); parameters: dose or concentration left out as unconfirmed
[3] = biological target: PTK5(h) (Homo sapiens (Human), UniProt P42685); parameters: dose or concentration left out as unconfirmed
[4] = biological target: EphA7(h) (Homo sapiens (Human), UniProt Q15375); parameters: dose or concentration left out as unconfirmed
[5] = biological target: TLK1(h) (Homo sapiens (Human), UniProt Q9UKI8)
[6] = biological target: CRIK(h) (Homo sapiens (Human), UniProt O14578); parameters: dose or concentration left out as unconfirmed
[7] = biological target: JNK2α2(h) (Homo sapiens (Human), UniProt P45984); parameters: dose or concentration left out as unconfirmed
[8] = biological target: LATS2(h) (Homo sapiens (Human), UniProt Q9NRM7); parameters: dose or concentration left out as unconfirmed
[9] = biological target: PDHK2(h) (Homo sapiens (Human), UniProt Q15119); parameters: dose or concentration left out as unconfirmed
[10] = biological target: PKAcβ(h) (Homo sapiens (Human), UniProt P22694); parameters: dose or concentration left out as unconfirmed
[11] = biological target: EphA4(h) (Homo sapiens (Human), UniProt P54764); parameters: dose or concentration left out as unconfirmed
[12] = biological target: GRK7(h) (Homo sapiens (Human), UniProt Q8WTQ7); parameters: dose or concentration left out as unconfirmed
[13] = biological target: NEK9(h) (Homo sapiens (Human), UniProt Q8TD19); parameters: dose or concentration left out as unconfirmed
[14] = biological target: Itk(h) (Homo sapiens (Human), UniProt Q08881); parameters: dose or concentration left out as unconfirmed
[15] = biological target: Met(h) (Homo sapiens (Human), UniProt P08581); parameters: dose or concentration left out as unconfirmed
[16] = biological target: CDK3/cyclinE(h) (Homo sapiens (Human), UniProt Q00526); parameters: dose or concentration left out as unconfirmed
[17] = biological target: SGK2(h) (Homo sapiens (Human), UniProt Q9HBY8); parameters: dose or concentration left out as unconfirmed
[18] = biological target: EphA1(h) (Homo sapiens (Human), UniProt P21709); parameters: dose or concentration left out as unconfirmed
[19] = biological target: RIPK1(h) (Homo sapiens (Human), UniProt Q13546); parameters: dose or concentration left out as unconfirmed
[20] = biological target: IRAK1(h) (Homo sapiens (Human), UniProt P51617); parameters: dose or concentration left out as unconfirmed
[21] = biological target: CaMKIV(h) (Homo sapiens (Human), UniProt Q16566); parameters: dose or concentration left out as unconfirmed
[22] = biological target: GSK3α(h) (Homo sapiens (Human), UniProt P49840); parameters: dose or concentration left out as unconfirmed
[23] = biological target: LTK(h) (Homo sapiens (Human), UniProt P29376); parameters: dose or concentration left out as unconfirmed
[24] = biological target: Haspin(h) (Homo sapiens (Human), UniProt Q8TF76); parameters: dose or concentration left out as unconfirmed
[25] = biological target: STK16(h) (Homo sapiens (Human), UniProt O75716); parameters: dose or concentration left out as unconfirmed
[26] = biological target: eEF-2K(h) (Homo sapiens (Human), UniProt O00418); parameters: dose or concentration left out as unconfirmed
[27] = biological target: Rse(h) (Homo sapiens (Human), UniProt Q06418); parameters: dose or concentration left out as unconfirmed
[28] = biological target: ULK3(h) (Homo sapiens (Human), UniProt Q6PHR2); parameters: dose or concentration left out as unconfirmed
[29] = biological target: ALK2(h) (Homo sapiens (Human), UniProt Q04771); parameters: dose or concentration left out as unconfirmed
[30] = biological target: MRCKβ(h) (Homo sapiens (Human), UniProt Q9Y5S2); parameters: dose or concentration left out as unconfirmed
[31] = biological target: mTOR/FKBP12(h) (Homo sapiens (Human), UniProt P42345); parameters: dose or concentration left out as unconfirmed

Chain of IRAK1(h) (P51617 whole entry): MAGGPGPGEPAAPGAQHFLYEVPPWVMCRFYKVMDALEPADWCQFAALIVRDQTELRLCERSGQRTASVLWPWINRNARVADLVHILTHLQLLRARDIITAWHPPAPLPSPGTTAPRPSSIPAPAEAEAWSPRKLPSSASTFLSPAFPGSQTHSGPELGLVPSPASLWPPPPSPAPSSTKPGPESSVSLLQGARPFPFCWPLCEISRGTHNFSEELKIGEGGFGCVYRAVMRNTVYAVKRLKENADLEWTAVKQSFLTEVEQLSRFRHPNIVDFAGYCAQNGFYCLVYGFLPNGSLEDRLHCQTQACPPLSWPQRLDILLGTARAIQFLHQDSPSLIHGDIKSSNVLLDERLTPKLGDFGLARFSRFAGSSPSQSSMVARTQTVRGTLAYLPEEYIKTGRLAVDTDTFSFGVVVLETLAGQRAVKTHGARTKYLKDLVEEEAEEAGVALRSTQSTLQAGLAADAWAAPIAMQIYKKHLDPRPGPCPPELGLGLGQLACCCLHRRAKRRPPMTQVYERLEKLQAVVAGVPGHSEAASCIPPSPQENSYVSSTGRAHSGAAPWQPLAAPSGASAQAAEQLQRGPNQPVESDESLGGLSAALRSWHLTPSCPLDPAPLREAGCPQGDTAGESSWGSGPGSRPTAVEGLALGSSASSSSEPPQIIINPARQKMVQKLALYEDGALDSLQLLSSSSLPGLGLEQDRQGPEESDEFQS
Chain of PTK5(h) (P42685 whole entry): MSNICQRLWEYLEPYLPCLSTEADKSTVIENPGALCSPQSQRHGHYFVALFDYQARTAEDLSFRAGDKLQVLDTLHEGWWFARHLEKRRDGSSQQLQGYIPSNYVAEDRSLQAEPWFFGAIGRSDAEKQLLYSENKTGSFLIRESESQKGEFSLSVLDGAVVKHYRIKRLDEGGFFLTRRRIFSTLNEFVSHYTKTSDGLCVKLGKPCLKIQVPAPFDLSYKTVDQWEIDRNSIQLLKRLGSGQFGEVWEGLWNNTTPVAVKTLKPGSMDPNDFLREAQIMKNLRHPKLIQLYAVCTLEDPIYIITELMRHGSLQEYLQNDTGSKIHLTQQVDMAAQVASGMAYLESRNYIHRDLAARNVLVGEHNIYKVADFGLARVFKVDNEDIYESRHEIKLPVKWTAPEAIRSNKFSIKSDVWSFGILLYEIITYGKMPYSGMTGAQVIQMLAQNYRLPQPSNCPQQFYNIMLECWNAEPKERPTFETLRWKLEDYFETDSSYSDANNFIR
Chain of TLK1(h) (Q9UKI8 whole entry): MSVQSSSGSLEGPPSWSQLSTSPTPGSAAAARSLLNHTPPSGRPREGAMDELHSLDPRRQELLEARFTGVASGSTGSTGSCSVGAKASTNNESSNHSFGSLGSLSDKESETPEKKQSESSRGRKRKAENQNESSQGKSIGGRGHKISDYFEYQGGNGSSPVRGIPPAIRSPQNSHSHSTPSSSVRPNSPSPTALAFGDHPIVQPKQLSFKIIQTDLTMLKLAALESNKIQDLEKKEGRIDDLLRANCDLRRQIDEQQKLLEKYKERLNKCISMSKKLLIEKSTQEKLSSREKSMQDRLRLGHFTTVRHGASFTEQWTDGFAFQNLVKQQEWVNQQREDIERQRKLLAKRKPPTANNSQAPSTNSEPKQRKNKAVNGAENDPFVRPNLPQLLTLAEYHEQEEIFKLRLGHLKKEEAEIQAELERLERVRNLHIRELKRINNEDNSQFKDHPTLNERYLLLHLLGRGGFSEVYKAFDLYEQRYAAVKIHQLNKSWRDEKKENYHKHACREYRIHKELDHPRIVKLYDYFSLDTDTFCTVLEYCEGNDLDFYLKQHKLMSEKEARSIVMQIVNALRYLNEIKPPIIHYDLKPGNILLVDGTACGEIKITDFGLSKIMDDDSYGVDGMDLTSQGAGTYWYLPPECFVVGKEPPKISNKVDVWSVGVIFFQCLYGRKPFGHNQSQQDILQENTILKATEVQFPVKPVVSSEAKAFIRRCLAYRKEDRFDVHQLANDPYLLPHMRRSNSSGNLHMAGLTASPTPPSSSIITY
Chain of EphA1(h) (P21709 26-976): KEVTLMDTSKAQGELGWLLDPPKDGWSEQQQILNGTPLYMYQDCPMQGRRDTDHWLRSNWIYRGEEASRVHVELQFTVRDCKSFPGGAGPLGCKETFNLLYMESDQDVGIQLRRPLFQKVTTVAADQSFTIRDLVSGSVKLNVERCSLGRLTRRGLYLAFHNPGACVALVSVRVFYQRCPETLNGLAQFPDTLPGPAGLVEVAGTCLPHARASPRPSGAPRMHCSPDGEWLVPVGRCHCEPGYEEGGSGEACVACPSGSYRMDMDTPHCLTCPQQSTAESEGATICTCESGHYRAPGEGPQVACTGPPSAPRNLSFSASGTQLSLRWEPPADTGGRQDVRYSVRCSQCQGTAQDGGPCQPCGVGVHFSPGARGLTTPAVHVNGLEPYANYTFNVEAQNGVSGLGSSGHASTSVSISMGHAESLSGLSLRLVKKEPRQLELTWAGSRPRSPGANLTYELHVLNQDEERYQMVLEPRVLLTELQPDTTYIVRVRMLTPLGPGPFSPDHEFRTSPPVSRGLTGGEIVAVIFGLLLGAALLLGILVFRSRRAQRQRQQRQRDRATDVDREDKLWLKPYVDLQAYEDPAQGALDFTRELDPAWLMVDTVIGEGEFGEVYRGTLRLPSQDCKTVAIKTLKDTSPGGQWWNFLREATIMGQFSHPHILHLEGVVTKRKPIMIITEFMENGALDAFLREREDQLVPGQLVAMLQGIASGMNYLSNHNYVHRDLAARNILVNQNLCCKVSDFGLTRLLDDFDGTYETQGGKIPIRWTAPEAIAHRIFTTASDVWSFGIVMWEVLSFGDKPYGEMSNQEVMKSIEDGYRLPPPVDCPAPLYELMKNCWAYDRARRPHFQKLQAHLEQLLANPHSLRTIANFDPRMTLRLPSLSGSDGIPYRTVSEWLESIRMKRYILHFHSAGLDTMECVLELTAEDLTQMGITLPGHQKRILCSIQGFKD
Chain of CaMKIV(h) (Q16566 whole entry): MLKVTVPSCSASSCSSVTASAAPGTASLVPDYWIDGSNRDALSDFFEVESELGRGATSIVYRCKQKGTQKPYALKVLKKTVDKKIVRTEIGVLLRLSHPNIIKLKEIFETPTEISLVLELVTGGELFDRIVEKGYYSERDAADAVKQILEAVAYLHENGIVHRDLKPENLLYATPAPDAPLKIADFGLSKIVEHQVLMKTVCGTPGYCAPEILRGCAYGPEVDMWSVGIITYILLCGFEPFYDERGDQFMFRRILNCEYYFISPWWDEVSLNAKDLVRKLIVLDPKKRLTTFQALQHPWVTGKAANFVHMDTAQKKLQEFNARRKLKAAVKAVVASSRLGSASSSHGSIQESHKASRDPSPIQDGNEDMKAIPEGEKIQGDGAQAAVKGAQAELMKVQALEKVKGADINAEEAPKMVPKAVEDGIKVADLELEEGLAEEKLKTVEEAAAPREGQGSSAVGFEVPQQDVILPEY
Chain of GSK3α(h) (P49840 whole entry): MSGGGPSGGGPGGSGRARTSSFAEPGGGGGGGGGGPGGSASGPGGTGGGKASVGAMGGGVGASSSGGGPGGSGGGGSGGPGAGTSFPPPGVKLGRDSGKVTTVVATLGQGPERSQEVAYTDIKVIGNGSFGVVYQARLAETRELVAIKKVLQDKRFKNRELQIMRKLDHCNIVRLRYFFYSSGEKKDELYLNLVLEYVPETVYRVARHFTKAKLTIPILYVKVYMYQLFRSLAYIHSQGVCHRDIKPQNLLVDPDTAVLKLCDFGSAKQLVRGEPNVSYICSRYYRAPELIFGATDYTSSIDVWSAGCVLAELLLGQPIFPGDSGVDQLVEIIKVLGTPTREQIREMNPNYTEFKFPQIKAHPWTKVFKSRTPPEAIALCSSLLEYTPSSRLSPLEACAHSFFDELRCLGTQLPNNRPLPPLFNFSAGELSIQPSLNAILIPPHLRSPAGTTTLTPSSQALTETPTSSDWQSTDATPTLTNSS
Chain of EphA7(h) (Q15375 28-998): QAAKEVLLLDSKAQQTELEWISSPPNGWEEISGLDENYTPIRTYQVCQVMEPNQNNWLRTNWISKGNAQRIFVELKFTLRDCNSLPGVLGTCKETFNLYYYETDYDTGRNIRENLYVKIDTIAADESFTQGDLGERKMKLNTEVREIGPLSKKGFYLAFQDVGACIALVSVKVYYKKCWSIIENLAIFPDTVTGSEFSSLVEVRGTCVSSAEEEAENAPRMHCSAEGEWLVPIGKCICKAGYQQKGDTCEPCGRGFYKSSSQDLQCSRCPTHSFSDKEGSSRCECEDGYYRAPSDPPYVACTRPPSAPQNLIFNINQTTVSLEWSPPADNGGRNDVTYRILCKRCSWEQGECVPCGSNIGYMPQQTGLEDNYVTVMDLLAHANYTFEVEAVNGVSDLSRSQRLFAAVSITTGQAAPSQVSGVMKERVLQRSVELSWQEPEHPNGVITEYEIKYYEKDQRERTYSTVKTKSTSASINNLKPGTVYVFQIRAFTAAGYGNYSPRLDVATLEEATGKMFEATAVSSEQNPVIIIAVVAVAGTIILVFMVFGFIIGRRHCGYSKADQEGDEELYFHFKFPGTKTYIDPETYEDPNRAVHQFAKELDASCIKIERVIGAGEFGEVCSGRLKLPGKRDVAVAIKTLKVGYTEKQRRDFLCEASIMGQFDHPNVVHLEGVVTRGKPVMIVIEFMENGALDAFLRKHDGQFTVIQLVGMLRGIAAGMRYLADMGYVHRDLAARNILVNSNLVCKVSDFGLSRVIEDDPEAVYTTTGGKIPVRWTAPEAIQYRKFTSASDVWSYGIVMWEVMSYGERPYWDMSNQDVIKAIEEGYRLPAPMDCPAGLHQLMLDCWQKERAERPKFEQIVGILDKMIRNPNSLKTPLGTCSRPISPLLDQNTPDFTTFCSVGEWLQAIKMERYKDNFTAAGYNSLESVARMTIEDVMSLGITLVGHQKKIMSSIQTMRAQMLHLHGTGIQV

**Q.** How did the “% Activity” value [1] turn out when Cc1cc2c(-c3ccc(NC(=O)[C@H](N)CC(C)(C)C)cc3C)ccnc2[nH]1 [Compound F-90, (2R)-2-Amino-4,4-dimethyl-N-[3-methyl-4-(2-methyl-1H-pyrrolo[2,3-b]pyridin-4-yl)phenyl]pentanamide] was run?
**A.** The value was 80%.

**Q.** And the “% Activity” value [2]?
**A.** The value was 96%.

**Q.** What about the “% Activity” value [3] of the same molecule?
**A.** The value was 90%.

**Q.** And the “% Activity” value [4]?
**A.** Its value is 114%.

**Q.** And the “% Activity” value [5]?
**A.** Its value is 82%.

**Q.** What about the “% Activity” value [6] of the same molecule?
**A.** The value was 0%.

**Q.** What about the “% Activity” value [7] of the same molecule?
**A.** Its value is 99%.

**Q.** What about the “% Activity” value [8] of the same molecule?
**A.** The value was 102%.

**Q.** What about the “% Activity” value [9] of the same molecule?
**A.** Its value is 87%.

**Q.** And the “% Activity” value [10]?
**A.** Its value is 12%.

**Q.** What about the “% Activity” value [11] of the same molecule?
**A.** The value was 92%.

**Q.** And the “% Activity” value [12]?
**A.** The value was 98%.

**Q.** And the “% Activity” value [13]?
**A.** The value was 79%.

**Q.** What about the “% Activity” value [14] of the same molecule?
**A.** Its value is 86%.

**Q.** And the “% Activity” value [15]?
**A.** The value was 90%.

**Q.** And the “% Activity” value [16]?
**A.** Its value is 102%.

**Q.** And the “% Activity” value [17]?
**A.** The value was 82%.

**Q.** And the “% Activity” value [18]?
**A.** Its value is 92%.

**Q.** And the “% Activity” value [19]?
**A.** The value was 84%.

**Q.** And the “% Activity” value [20]?
**A.** The value was 95%.

**Q.** And the “% Activity” value [21]?
**A.** Its value is 99%.

**Q.** And the “% Activity” value [22]?
**A.** The value was 87%.

**Q.** And the “% Activity” value [23]?
**A.** The value was 97%.

**Q.** And the “% Activity” value [24]?
**A.** The value was 140%.

**Q.** What about the “% Activity” value [25] of the same molecule?
**A.** The value was 94%.

**Q.** What about the “% Activity” value [26] of the same molecule?
**A.** The value was 92%.

**Q.** What about the “% Activity” value [27] of the same molecule?
**A.** The value was 129%.

**Q.** And the “% Activity” value [28]?
**A.** Its value is 95%.

**Q.** What about the “% Activity” value [29] of the same molecule?
**A.** The value was 122%.

**Q.** And the “% Activity” value [30]?
**A.** Its value is 100%.

**Q.** What about the “% Activity” value [31] of the same molecule?
**A.** The value was 120%.
